Consider three molecules from paper PMC11331138, “Leveraging coevolutionary insights and AI-based structural modeling to unravel receptor–peptide ligand-binding mechanisms” (Proceedings of the National Academy of Sciences of the …, 2024).

One test has as its system Arabidopsis Col-0. The settings on record: selection criterion; ref [17]; cited from earlier work. The source says: To test the conservation of plant responses to SCOOPs, we measured the production of ROS—a hallmark of LRR-RK activation—triggered by SCOOPs. […] The SCOOP SxS motif is unique across known plant-secreted signaling peptides in contrast to the N-terminal asparag ... || The S5 and S7 binding pockets were functionally validated by testing MIK2 variants using three experimental approaches; A) SCOOP12-binding to MIK2 ectodomain in vitro, B) SCOOP12-induced complex formation with its coreceptor BAK1 in vivo, and C) ROS production upon SCOOP treatments as a marker for receptor complex activation (Fig. 4 and SI Appendix, Fig. S6).

The next test deals with B. rapa MIK2. In words: ROS production, B. rapa MIK2 expressed in N. benthamiana. Format: cell-based, Brassica rapa. Particulars: 1 μM SCOOP. As to the method:
(§1) removed and ROS production was measured upon addition of a 100-μL assay solution which contained 10 μg/mL
(§2) horseradish peroxidase (P6782, Merck), 10 mM luminol and the treatment (1 μM SCOOP, 0.1 μM flg22 or H2O).
(§3) Luminescence was quantified with a HIGH-RESOLUTION PHOTON COUNTING SYSTEM (HRPCS218, Photek). Four
(§4) technical replicates per biological replicate (specified in Fig. S2) were quantified for each treatment, significant
(§5) differences were determined by performing a two-group Mann-Whitney U Test between each SCOOP treatment
(§6) and the mock treatment. R and the R-packages dplyr (v1.1.2), ggpubr (v.0.6.0), and ggplot2 (v3.4.2) were used to
(§7) analyze and plot the data. The resulting figure was edited in Corel-DRAW Home & Student x7.
(§8) Functional validation MIK2 homologues
(§9) All constructs were created using a hierarchical modular cloning approach facilitated by the MoClo toolkit and the
(§10) MoClo Plant Parts kit (25, 26). For recombinant expression, we used the previously published Arabidopsis MIK2
(§11) sequence (L0 level backbone, CZLp4829) (27), and MIK2 homologues were synthesized with domesticated BsaI […]
(§12) while using diverse Arabidopsis SCOOPs (AA sequences, Dataset S1) and fl g22. Biological replicates were quantified […]
(§13) H2O and rested for a minimum of 30 min in the dark. Two readings were taken in a TECAN SPARK plate reader every […]

The next test deals with D. strictus MIK2. In words: ROS production, D. strictus MIK2 expressed in N. benthamiana. The settings on record: 1 μM SCOOP. Type of test: cell-based, Diptychocarpus strictus. As to the method: as §1, §2, §3, §4, §5, §6, §7, §8, §9, §10, §11, §12, §13
Another test concerns R. islandica MIK2. In words: ROS production, R. islandica MIK2 expressed in N. benthamiana. Format: cell-based, Rorippa islandica. Particulars: 1 μM SCOOP. As to the method: as §1, §2, §3, §4, §5, §6, §7, §8, §9, §10, §11, §12, §13
The target of test [1] is MIK2 ectodomain S292A (S7 binding pocket variant) (Arabidopsis thaliana, UniProt Q8VZG8 44-709, S292A). In words: ITC.
Test [2] addresses T1, MIK2 (MALE DISCOVERER 1-INTERACTING RECEPTOR-LIKE KINASE 2) ectodomain, wild type (Arabidopsis thaliana, UniProt Q8VZG8 44-709).
T1 chain: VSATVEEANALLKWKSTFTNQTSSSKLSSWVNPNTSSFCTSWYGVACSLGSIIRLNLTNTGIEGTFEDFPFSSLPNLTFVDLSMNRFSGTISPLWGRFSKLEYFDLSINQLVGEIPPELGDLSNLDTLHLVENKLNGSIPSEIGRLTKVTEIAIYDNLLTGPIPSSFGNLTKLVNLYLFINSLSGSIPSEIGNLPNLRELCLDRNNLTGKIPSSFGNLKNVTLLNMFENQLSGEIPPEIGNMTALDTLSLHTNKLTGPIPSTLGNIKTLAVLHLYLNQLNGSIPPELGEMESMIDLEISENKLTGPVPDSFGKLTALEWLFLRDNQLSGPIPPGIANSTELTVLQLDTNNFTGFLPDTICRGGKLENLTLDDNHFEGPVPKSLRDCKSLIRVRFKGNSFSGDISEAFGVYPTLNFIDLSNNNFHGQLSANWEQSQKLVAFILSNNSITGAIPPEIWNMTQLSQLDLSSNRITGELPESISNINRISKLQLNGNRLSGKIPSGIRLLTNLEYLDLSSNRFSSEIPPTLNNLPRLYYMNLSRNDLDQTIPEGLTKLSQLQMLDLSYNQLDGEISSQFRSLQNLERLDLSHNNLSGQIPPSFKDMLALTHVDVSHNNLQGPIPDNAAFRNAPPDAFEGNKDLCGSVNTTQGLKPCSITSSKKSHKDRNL
In words: ITC. (In ITC the heat of successive injections is recorded.)

Chain of MIK2 ectodomain S292A (S7 binding pocket variant) (Q8VZG8 44-709 S292A): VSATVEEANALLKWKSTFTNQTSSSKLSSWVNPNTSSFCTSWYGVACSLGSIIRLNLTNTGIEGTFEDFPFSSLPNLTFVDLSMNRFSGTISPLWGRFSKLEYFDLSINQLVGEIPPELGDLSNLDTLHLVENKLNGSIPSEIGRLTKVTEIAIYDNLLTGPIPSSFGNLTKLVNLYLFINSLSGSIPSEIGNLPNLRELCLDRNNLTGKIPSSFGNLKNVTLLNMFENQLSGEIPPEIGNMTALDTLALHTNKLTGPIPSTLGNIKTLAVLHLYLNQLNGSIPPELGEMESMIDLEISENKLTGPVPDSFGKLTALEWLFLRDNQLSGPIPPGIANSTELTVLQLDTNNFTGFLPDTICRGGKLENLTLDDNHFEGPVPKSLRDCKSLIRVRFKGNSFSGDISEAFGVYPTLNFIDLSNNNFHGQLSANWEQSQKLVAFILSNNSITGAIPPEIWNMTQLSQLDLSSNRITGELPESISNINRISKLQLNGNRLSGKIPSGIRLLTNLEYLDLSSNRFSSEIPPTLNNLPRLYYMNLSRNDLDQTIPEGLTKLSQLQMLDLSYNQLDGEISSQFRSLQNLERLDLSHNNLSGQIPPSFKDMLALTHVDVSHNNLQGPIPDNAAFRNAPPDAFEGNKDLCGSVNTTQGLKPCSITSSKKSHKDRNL

For RVPRSKSPPDRQW [SCOOP24], the “ROS production upon SCOOP treatment in Arabidopsis” value with Arabidopsis Col-0 is on record as “robust ROS production”. Moreover, the “SCOOP-induced ROS production (in words)” value in the test with B. rapa MIK2 is given as “did not lead to significant ROS production”.
Regarding YVPPSKSRRGKGP [SCOOP16], the “SCOOP-induced ROS production (in words)” value in the test with D. strictus MIK2 and in the test on R. islandica MIK2 was “conferred responsiveness” each time. Moreover, the “ROS production upon SCOOP treatment in Arabidopsis” value in the test on Arabidopsis Col-0 is given as “robust ROS production”.

B1: SCOOP12 (SERINE RICH ENDOGENOUS PEPTIDE 12), synthetic peptide (peptide)
chain: PVRSSQSSQAGGR
Usually Kd stands for a measure of binding affinity in units of concentration. As to B1, the Kd was 1240 nM in test [1] and 2120 nM in test [2].
